Test results published in ChEMBL document CHEMBL5226341, “Discovery of a Potent FLT3 Inhibitor (LT-850-166) with the Capacity of Overcoming a Variety of FLT3 Mutations” (J Med Chem, 2021).
Calls of active or inactive are those of the source. The rule behind the calls is not given here.

Experiments:
[1] = Oral bioavailability in Sprague-Dawley rat at 10 mg/kg measured for 24 hrs by LC-MS/MS analysis; type: ADME, organism-based; settings: in vivo
[2] = tested on: BaF3; assay: Antiproliferative activity against mouse BaF3 cells harboring FLT3-ITD-N676D mutant assessed as reduction in cell viability measured after 72 hrs by CellTiterGlo luminescent assay; type: functional, cell-based; settings: BaF3, 72 h
[3] = tested on: THP-1; assay: Antiproliferative activity against human THP-1 cells assessed as reduction in cell viability measured after 72 hrs by CellTiterGlo luminescent assay; type: functional, cell-based; settings: THP-1, 72 h
[4] = tested on: MV4-11; assay: Induction of apoptosis in human MV4-11 cells assessed as late apoptotic cells at 50 nM incubated for 24 hrs by AnnexinV-FITC/PI staining based flow cytometry (reference value: 4.2%); type: functional
[5] = Toxicity in BALB/c mouse xenografted with human MV4-11 cells assessed as change in body weight at 15 mg/kg, iv BID for 21 days; type: organism-based; settings: in vivo, 504 h, time 21 day
[6] = tested on: NB-4; assay: Antiproliferative activity against human NB-4 cells assessed as reduction in cell viability measured after 72 hrs by CellTiterGlo luminescent assay; type: functional, cell-based; settings: NB-4, 72 h
[7] = tested on: HCD-57; assay: Induction of apoptosis in mouse HCD-57 cells harboring FLT3-ITD mutant at 100 nM incubated for 24 hrs by AnnexinV-FITC/PI staining based flow cytometry; type: functional, cell-based
[8] = Ratio of IC50 for antiproliferative activity against mouse BaF3 cells harboring FLT3-ITD-F691L mutant to IC50 for antiproliferative activity against mouse BaF3 cells harboring FLT3-ITD mutant; type: functional
[9] = tested on: BaF3; type: functional, cell-based; settings: Mus musculus, BaF3, 72 h
[10] = Ratio of IC50 for antiproliferative activity against mouse BaF3 cells harboring FLT3-ITD-Y842H mutant to IC50 for antiproliferative activity against mouse BaF3 cells harboring FLT3-ITD mutant; type: functional
[11] = Ratio of IC50 for antiproliferative activity against mouse BaF3 cells harboring FLT3-ITD-N676D mutant to IC50 for antiproliferative activity against mouse BaF3 cells harboring FLT3-ITD mutant; type: functional
[12] = tested on: Receptor-type tyrosine-protein kinase FLT3 (Homo sapiens), P36888 [UNDEFINED MUTATION]; type: cell-based; settings: BaF3, dose 0.1-100 nM, time 4.0 hrs
[13] = target: Receptor-type tyrosine-protein kinase FLT3 (Homo sapiens) (UniProt P36888); assay: Inhibition of FLT3 in human MV4-11 cells assessed as inhibition of FLT3 phosphorylation at Tyr589/591 residue at 10 nM incubated for 4 hrs by western blot analysis; type: cell-based
[14] = Volume of distribution at steady state in Sprague-Dawley rat at 1 mg/kg, iv measured for 24 hrs by LC-MS/MS analysis; type: ADME, organism-based; settings: in vivo, read-out: Vdss
[15] = tested on: BaF3; assay: cells; settings: Mus musculus, BaF3, 72 h
Description: Antiproliferative activity against mouse BaF3 cells harboring FLT3-ITD-D835V mutant assessed as reduction in cell viability measured after 72 hrs by CellTiterGlo luminescent assay

[16] = tested on: MV4-11; assay: Antitumor activity against human MV4-11 cells xenografted in BALB/c mouse assessed as tumor growth inhibition at 15 mg/kg, iv BID for 21 days by vernier caliper analysis; type: functional; settings: MV4-11, 504 h, time 21 day, read-out: TGI
[17] = Induction of cell cycle arrest in mouse HCD-57 cells at 100 nM incubated for 24 hrs by PI staining based flow cytometry; type: toxicity; settings: hcd-57, 24 h, 0.1 µM
[18] = tested on: MV4-11; assay: Antitumor activity against human MV4-11 cells xenografted in BALB/c mouse assessed as inhibition rate of tumor weight at 15 mg/kg, iv QD for 21 days by vernier caliper analysis; type: functional; settings: MV4-11, 504 h, time 21 day
[19] = Antiproliferative activity against mouse HCD-57 cells assessed as reduction in cell viability measured after 72 hrs by CellTiterGlo luminescent assay; type: toxicity, cell-based; settings: hcd-57, 72 h
[20] = tested on: MV4-11; assay: Induction of apoptosis in human MV4-11 cells assessed as viable cells at 50 nM incubated for 24 hrs by AnnexinV-FITC/PI staining based flow cytometry (reference value: 92.3%); type: functional; settings: read-out: Activity
[21] = tested on: MV4-11; assay: Induction of apoptosis in human MV4-11 cells assessed as viable cells at 10 nM incubated for 24 hrs by AnnexinV-FITC/PI staining based flow cytometry (reference value: 92.3%); type: functional; settings: read-out: Activity
[22] = Toxicity in BALB/c mouse xenografted with human MV4-11 cells assessed as morphological changes in heart at 15 mg/kg, iv for 21 days by H and E staining based analysis; type: organism-based; settings: in vivo, 504 h, time 21 day
[23] = tested on: BaF3; assay: Antiproliferative activity against mouse BaF3 cells harboring FLT3-ITD-F691L mutant assessed as residual cell viability at 10 nM incubated for 72 hrs by CellTiterGlo luminescent assay; type: functional
[24] = Antiproliferative activity against mouse BaF3 cells assessed as reduction in cell viability measured after 72 hrs by CellTiterGlo luminescent assay; type: toxicity, cell-based
[25] = Half life in Sprague-Dawley rat at 10 mg/kg, po measured for 24 hrs by LC-MS/MS analysis; type: ADME, organism-based; settings: in vivo
[26] = tested on: HCD-57; assay: Induction of cell cycle arrest in mouse HCD-57 cells harboring FLT3-ITD mutant at 100 nM incubated for 24 hrs by PI staining based flow cytometry; type: functional
[27] = tested on: U-937; assay: Antiproliferative activity against human U-937 cells assessed as reduction in cell viability measured after 72 hrs by CellTiterGlo luminescent assay; type: functional, cell-based; settings: U-937, 72 h
[28] = tested on: MV4-11; assay: Induction of apoptosis in human MV4-11 cells assessed as viable cells at 100 nM incubated for 24 hrs by AnnexinV-FITC/PI staining based flow cytometry (reference value: 92.3%); type: functional; settings: read-out: Activity
[29] = Toxicity in ICR mouse assessed as change in body weight at 100 mg/kg, iv administered as single dose and measured for 14 days; type: organism-based; settings: in vivo, 336 h, time 14 day
[30] = tested on: HCD-57; assay: Antiproliferative activity against mouse HCD-57 cells harboring FLT3-ITD mutant assessed as reduction in cell viability measured after 72 hrs by CellTiterGlo luminescent assay; type: functional, cell-based
[31] = tested on: MDA-MB-231; assay: Antiproliferative activity against human MDA-MB-231 cells assessed as reduction in cell viability measured after 72 hrs by CellTiterGlo luminescent assay; type: functional, cell-based; settings: MDA-MB-231, 72 h
[32] = target: Receptor-type tyrosine-protein kinase FLT3 (Homo sapiens) (UniProt P36888); assay: Inhibition of FLT3 in human MV4-11 cells assessed as inhibition of STAT5 phosphorylation at Tyr694 residue incubated for 4 hrs by western blot analysis; type: cell-based; settings: dose 0.1-100 nM
[33] = target: Receptor-type tyrosine-protein kinase FLT3 (Homo sapiens) (UniProt P36888); assay: Inhibition of FLT3 in human MV4-11 cells assessed as inhibition of STAT5 phosphorylation at Tyr694 residue at 10 nM incubated for 4 hrs by western blot analysis; type: cell-based
[34] = tested on: HCT-116; assay: Antiproliferative activity against human HCT-116 cells assessed as reduction in cell viability measured after 72 hrs by CellTiterGlo luminescent assay; type: functional, cell-based; settings: HCT-116, 72 h
[35] = tested on: Panc02; assay: Antiproliferative activity against mouse Panc02 cells assessed as reduction in cell viability measured after 72 hrs by CellTiterGlo luminescent assay; type: functional, cell-based; settings: Panc02, 72 h
[36] = Toxicity in BALB/c mouse xenografted with human MV4-11 cells assessed as morphological changes in kidney at 15 mg/kg, iv for 21 days by H and E staining based analysis; type: organism-based; settings: in vivo, 504 h, time 21 day

Chain of Receptor-type tyrosine-protein kinase FLT3 (Homo sapiens) (P36888 whole entry): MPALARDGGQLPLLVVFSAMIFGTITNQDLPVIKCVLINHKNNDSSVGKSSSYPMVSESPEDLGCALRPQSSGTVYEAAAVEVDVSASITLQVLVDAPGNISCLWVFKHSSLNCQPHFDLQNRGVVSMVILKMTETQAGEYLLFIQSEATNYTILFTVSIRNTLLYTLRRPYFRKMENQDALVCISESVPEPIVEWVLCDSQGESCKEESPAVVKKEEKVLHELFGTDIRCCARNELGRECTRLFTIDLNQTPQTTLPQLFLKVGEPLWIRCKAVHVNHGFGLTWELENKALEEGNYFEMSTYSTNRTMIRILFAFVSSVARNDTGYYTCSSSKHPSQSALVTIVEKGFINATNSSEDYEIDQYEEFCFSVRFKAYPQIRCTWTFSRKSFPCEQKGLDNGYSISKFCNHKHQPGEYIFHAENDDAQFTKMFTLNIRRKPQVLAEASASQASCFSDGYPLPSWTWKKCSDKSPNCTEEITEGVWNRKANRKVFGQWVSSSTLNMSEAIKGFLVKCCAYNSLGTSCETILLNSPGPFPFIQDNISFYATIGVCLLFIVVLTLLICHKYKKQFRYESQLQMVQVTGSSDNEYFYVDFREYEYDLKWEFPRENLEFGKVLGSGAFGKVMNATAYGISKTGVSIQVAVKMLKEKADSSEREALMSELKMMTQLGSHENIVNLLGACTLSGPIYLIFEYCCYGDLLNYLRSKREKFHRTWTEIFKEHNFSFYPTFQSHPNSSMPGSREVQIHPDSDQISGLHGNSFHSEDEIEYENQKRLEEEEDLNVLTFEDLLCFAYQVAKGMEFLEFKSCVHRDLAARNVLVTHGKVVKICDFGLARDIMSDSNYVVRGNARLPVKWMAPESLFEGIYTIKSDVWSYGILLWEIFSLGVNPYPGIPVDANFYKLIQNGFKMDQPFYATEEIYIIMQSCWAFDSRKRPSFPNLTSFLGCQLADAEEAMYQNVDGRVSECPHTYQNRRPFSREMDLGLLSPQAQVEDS
Chain of Receptor-type tyrosine-protein kinase FLT3 (Homo sapiens), P36888 [UNDEFINED MUTATION] (P36888 whole entry, looked up, change not shown): as the sequence (P36888 whole entry) above

CCN1CCN(c2ccc(C(=O)Nc3cc(-c4ccc5ncn(Cc6c(Cl)cccc6Cl)c5c4)[nH]n3)cc2)CC1
bioavailability [1]: 1.3% | IC50 [2]: 42.4 nM | IC50 [3]: > 5 µM | Activity [4]: 26.3% | Activity [5]: Non-Toxic | IC50 [6]: > 5 µM | Activity [7]: Active | Ratio IC50 [8]: 1.09 | IC50 [9]: < 1.5 nM | Ratio IC50 [10]: <0.2 | Ratio IC50 [11]: 5.58 | inhibition [12]: Dose-Dependent Effect | inhibition [13]: 100% | Vd [14]: 6.27 L/kg | IC50 [15]: < 1.5 nM | inhibition in vivo at 15 mg/kg [16]: 108% | Activity [17]: Non-Toxic | inhibition in vivo at 15 mg/kg [18]: 82.7% | Activity [19]: Non-Toxic | viability at 0.05 µM [20]: 61.5% | viability at 0.01 µM [21]: 67.9% | Activity [22]: Non-Toxic | Activity [23]: 43.16% | IC50 at 72 h [24]: 4.09 µM | half-life [25]: 215 min | Activity [26]: Active | IC50 [27]: > 2000 nM | viability at 0.1 µM [28]: 59.7% | Activity [29]: Non-Toxic | Activity [30]: Active | IC50 [31]: 3.85 µM | inhibition [32]: Dose-Dependent Effect | inhibition [33]: 100% | IC50 [34]: > 10 µM | IC50 [35]: 2740 nM | Activity [36]: Non-Toxic
